Data reported in patent publication US10485235B2, “Aryloxypyrimidinyl ethers as herbicides” (FMC Corporation, priority 2015, dated 2019).

Assays:
Format in all cases: in vivo
[1] = test system: barnyardgrass (Echinochloa crus-galli); assay: Test A preemergence, barnyardgrass; settings: Preemergence, 0 to 100 scale (0 no effect, 100 complete control)
Outline: (§1)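 Pre- and postemergence greenhouse screen in loam–sand soil. Test chemicals were delivered in a non-phytotoxic solvent with surfactant, preemergence as a directed spray onto seeded soil and postemergence onto 2–10 cm seedlings. Injury was judged by eye after ~10 days on a 0–100 scale.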

[2] = test system: kochia (Kochia scoparia); assay: Test A preemergence, kochia; settings: Preemergence, 0 to 100 scale (0 no effect, 100 complete control)
Outline: as §1

[3] = test system: ragweed (common ragweed, Ambrosia elatior); assay: Test A preemergence, ragweed; settings: Preemergence, 0 to 100 scale (0 no effect, 100 complete control)
Outline: as §1

[4] = test system: ryegrass, Italian (Italian ryegrass, Lolium multiflorum); assay: Test A preemergence, Italian ryegrass; settings: Preemergence, 0 to 100 scale (0 no effect, 100 complete control)
Outline: as §1

[5] = test system: foxtail, giant (giant foxtail, Setaria faberii); assay: Test A preemergence, giant foxtail; settings: Preemergence, 0 to 100 scale (0 no effect, 100 complete control)
Outline: as §1

[6] = test system: pigweed (Amaranthus retroflexus); assay: Test A preemergence, pigweed; settings: Preemergence, 0 to 100 scale (0 no effect, 100 complete control)
Outline: as §1

[7] = test system: barnyardgrass (Echinochloa crus-galli); assay: Test A postemergence, barnyardgrass; settings: postemergence, 0 to 100 scale, 0 is no effect, 100 is complete control, approximately 10 days
Outline: as §1

[8] = test system: kochia (Kochia scoparia); assay: Test A postemergence, kochia; settings: postemergence, 0 to 100 scale, 0 is no effect, 100 is complete control, approximately 10 days
Outline: as §1

[9] = test system: ragweed (common ragweed, Ambrosia elatior); assay: Test A postemergence, ragweed; settings: postemergence, 0 to 100 scale, 0 is no effect, 100 is complete control, approximately 10 days
Outline: as §1

[10] = test system: ryegrass, Italian (Italian ryegrass, Lolium multiflorum); assay: Test A postemergence, Italian ryegrass; settings: postemergence, 0 to 100 scale, 0 is no effect, 100 is complete control, approximately 10 days
Outline: as §1

[11] = test system: foxtail, giant (giant foxtail, Setaria faberii); assay: Test A postemergence, giant foxtail; settings: postemergence, 0 to 100 scale, 0 is no effect, 100 is complete control, approximately 10 days
Outline: as §1

[12] = test system: pigweed (Amaranthus retroflexus); assay: Test A postemergence, pigweed; settings: postemergence, 0 to 100 scale, 0 is no effect, 100 is complete control, approximately 10 days
Outline: as §1

[13] = test system: wheat (Triticum aestivum); assay: Test A postemergence, wheat; settings: postemergence, 0 to 100 scale, 0 is no effect, 100 is complete control, approximately 10 days
Outline: as §1

[14] = test system: corn (Zea mays); assay: Test A postemergence, corn; settings: postemergence, 0 to 100 scale, 0 is no effect, 100 is complete control, approximately 10 days
Outline: as §1

[15] = test system: blackgrass (Alopecurus myosuroides); assay: Test A postemergence, blackgrass; settings: postemergence, 0 to 100 scale, 0 is no effect, 100 is complete control, approximately 10 days
Outline: as §1

[16] = test system: galium (catchweed bedstraw, Galium aparine); assay: Test A postemergence, galium; settings: postemergence, 0 to 100 scale, 0 is no effect, 100 is complete control, approximately 10 days
Outline: as §1

[17] = test system: rice (Oryza sativa); assay: Test B flooded paddy test, rice; settings: 250 g ai/ha, Flood; visual rating after 13 to 15 days; scale 0 to 100, 0 is no effect, 100 is complete control
Outline: (§2)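 Plants grown to the 2-leaf stage; pots flooded to 3 cm above soil and compounds applied directly into the paddy water, depth held throughout. After 13 to 15 days in the greenhouse, injury was rated visually against untreated controls on a 0–100 scale (0 no effect, 100 complete control).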

[18] = test system: sedge, umbrella (small-flower umbrella sedge, Cyperus difformis); assay: Test B flooded paddy test, umbrella sedge; settings: 250 g ai/ha, Flood; visual rating after 13 to 15 days; scale 0 to 100, 0 is no effect, 100 is complete control
Outline: as §2

[19] = test system: ducksalad (Heteranthera limosa); assay: Test B flooded paddy test, ducksalad; settings: 250 g ai/ha, Flood; visual rating after 13 to 15 days; scale 0 to 100, 0 is no effect, 100 is complete control
Outline: as §2

[20] = test system: barnyardgrass (Echinochloa crus-galli); assay: Test B flooded paddy test, barnyardgrass; settings: 250 g ai/ha, Flood; visual rating after 13 to 15 days; scale 0 to 100, 0 is no effect, 100 is complete control
Outline: as §2

| Compound | Plant response rating, Barnyardgrass ([1]; 31 g ai/ha) | Plant response rating, Barnyardgrass ([1]; 125 g ai/ha) | Plant response rating, Kochia ([2]; 31 g ai/ha) | Plant response rating, Kochia ([2]; 125 g ai/ha) | Plant response rating, Ragweed ([3]; 31 g ai/ha) | Plant response rating, Ragweed ([3]; 125 g ai/ha) | Plant response rating, Ryegrass, Italian ([4]; 31 g ai/ha) | Plant response rating, Ryegrass, Italian ([4]; 125 g ai/ha) | Plant response rating, Foxtail, Giant ([5]; 31 g ai/ha) | Plant response rating, Foxtail, Giant ([5]; 125 g ai/ha) | Plant response rating, Pigweed ([6]; 31 g ai/ha) | Plant response rating, Pigweed ([6]; 125 g ai/ha) | Plant response rating, Barnyardgrass ([7]; 31 g ai/ha) | Plant response rating, Barnyardgrass ([7]; 125 g ai/ha) | Plant response rating, Kochia ([8]; 31 g ai/ha) | Plant response rating, Kochia ([8]; 125 g ai/ha) | Plant response rating, Ragweed ([9]; 31 g ai/ha) | Plant response rating, Ragweed ([9]; 125 g ai/ha) | Plant response rating, Ryegrass, Italian ([10]; 31 g ai/ha) | Plant response rating, Ryegrass, Italian ([10]; 125 g ai/ha) | other results |
| --- | --- | --- | --- | --- | --- | --- | --- | --- | --- | --- | --- | --- | --- | --- | --- | --- | --- | --- | --- | --- | --- |
| N#Cc1cccc(Oc2ncc(F)cn2)c1OC/C=C/C(F)(F)F [Compound 39] | 50 | 100 | 60 | 100 | 0 | 10 | 0 | 20 | 90 | 100 | 100 | 100 | 20 | 40 | 90 | 90 | 0 | 10 | 0 | 50 | Plant response rating, Foxtail, Giant ([11]; 31 g ai/ha): 20; Plant response rating, Foxtail, Giant ([11]; 125 g ai/ha): 90; Plant response rating, Pigweed ([12]; 31 g ai/ha): 90; Plant response rating, Pigweed ([12]; 125 g ai/ha): 100; Plant response rating, Wheat ([13]; 31 g ai/ha): 0; Plant response rating, Wheat ([13]; 125 g ai/ha): 20; Plant response rating, Corn ([14]; 31 g ai/ha): 20; Plant response rating, Corn ([14]; 125 g ai/ha): 50; Plant response rating, Blackgrass ([15]; 31 g ai/ha): 10; Plant response rating, Blackgrass ([15]; 125 g ai/ha): 60; Plant response rating, Galium ([16]; 31 g ai/ha): 20; Plant response rating, Galium ([16]; 125 g ai/ha): 60; Plant response rating, Rice [17]: 15; Plant response rating, Sedge, Umbrella [18]: 100; Plant response rating, Ducksalad [19]: 65; Plant response rating, Barnyardgrass [20]: 30 |
| N#Cc1cccc(Oc2ncc(F)cn2)c1OCCC(F)(F)F [Compound 40] | 30 | 80 | 90 | 100 | 10 | 90 | 0 | 10 | 70 | 90 | 100 | 100 | 0 | 50 | 50 | 70 | 0 | 10 | 0 | 10 | Plant response rating, Foxtail, Giant ([11]; 31 g ai/ha): 10; Plant response rating, Foxtail, Giant ([11]; 125 g ai/ha): 80; Plant response rating, Pigweed ([12]; 31 g ai/ha): 80; Plant response rating, Pigweed ([12]; 125 g ai/ha): 90; Plant response rating, Wheat ([13]; 31 g ai/ha): 0; Plant response rating, Wheat ([13]; 125 g ai/ha): 0; Plant response rating, Corn ([14]; 31 g ai/ha): 10; Plant response rating, Corn ([14]; 125 g ai/ha): 20; Plant response rating, Blackgrass ([15]; 31 g ai/ha): 10; Plant response rating, Blackgrass ([15]; 125 g ai/ha): 30; Plant response rating, Galium ([16]; 31 g ai/ha): 20; Plant response rating, Galium ([16]; 125 g ai/ha): 60; Plant response rating, Rice [17]: 0; Plant response rating, Sedge, Umbrella [18]: 70; Plant response rating, Ducksalad [19]: 75; Plant response rating, Barnyardgrass [20]: 0 |
